US20250136594A1 (Tango Therapeutics, Inc., priority 2022, published 2025)

Experiments:
[1] = test system: SDMA in HAP1 MTAP-intact cell line (PRMT5 inhibition); assay: SDMA in-cell western assay, HAP1 MTAP-intact cell line; settings: Homo sapiens, HAP1, read-out: Hap1 MTAP intact IC50
[2] = test system: HAP1 MTAP-deleted cell line; assay: Viability assay, HAP1 MTAP-deleted cell line; format: cell-based; settings: Homo sapiens; viability assay, HAP1 MTAP-deleted cell line; read-out: Hap1 MTAP deleted viability IC50
[3] = test system: SDMA in HAP1 MTAP-deleted (MTAP-null) cell line (PRMT5 inhibition); assay: SDMA in-cell western assay, HAP1 MTAP-deleted cell line; settings: for IC50 / IC90: Homo sapiens; for IC50: HAP1, read-out: Hap1 MTAP deleted IC50; for IC90: HAP1, read-out: Hap1 MTAP deleted IC90; for Hap1 MTAP intact/deleted ratio: ratio of SDMA IC50 in HAP1 MTAP-intact to HAP1 MTAP-deleted cell line

SMILES	IC50 [1]	IC50 [2]	IC50 [3]	IC90 [3]	Hap1 MTAP intact/deleted ratio [3]
CCc1cc(NC(=O)C(=O)N(Cc2ccc(C(F)(F)F)cn2)C(C)C(C)C)cnc1N (stereo not drawn) [Compound 42, N-(6-amino-5-ethyl-3-pyridyl)-N′-(1,2-dimethylpropyl)-N′-[[5-(trifluoromethyl)-2-pyridyl]methyl]oxamide]	> 50 nM	100 to 1000 nM	5 to 50 nM	> 125 nM	B (IC50 ratio greater than or equal to 15 fold but lower than 30 fold)
Nc1ncc(NC(=O)C(=O)N(Cc2ccc(C(F)(F)F)cn2)[C@@H]2CCC[C@H]2OC(F)F)c2[nH]ncc12 [Compound 43, N1-(4-amino-1H-pyrazolo[4,3-c]pyridin-7-yl)-N^2-((1R,2R)-2-(difluoromethoxy)cyclopentyl)-N^2-((5-(trifluoromethyl)pyridin-2-yl)methyl)oxalamide]	5 to 50 nM	< 100 nM	< 5 nM	< 75 nM	C (IC50 ratio of less than 15 fold)
COC[C@@H](C1CC1)N(Cc1ccc(C(F)(F)F)cn1)C(=O)C(=O)Nc1cnc(N)c(C2CC2)c1 [Compound 45, (R)—N^1-(6-amino-5-cyclopropylpyridin-3-yl)-N^2-(1-cyclopropyl-2-methoxyethyl)-N^2-((5-(trifluoromethyl)pyridin-2-yl)methyl)oxalamide]	> 50 nM	100 to 1000 nM	5 to 50 nM	> 125 nM	A (IC50 ratio greater than or equal to 30 fold)
Cc1cc(NC(=O)C(=O)N(Cc2ccc(C(F)(F)F)cn2)[C@@H](C)c2ncccn2)cnc1N [Compound 49, N-(6-amino-5-methyl-3-pyridyl)-N′—[(1S)-1-pyrimidin-2-ylethyl]-N′-[[5-(trifluoromethyl)-2-pyridyl]methyl]oxamide]	5 to 50 nM	100 to 1000 nM	5 to 50 nM	> 125 nM	C (IC50 ratio of less than 15 fold)
Cc1cccc(CN(Cc2ccccn2)C(=O)C(=O)Nc2cnc(N)c3cn[nH]c23)c1 [Compound 52, N-(4-amino-1H-pyrazolo[4,3-c]pyridin-7-yl)-N′-(m-tolylmethyl)-N′-(2-pyridylmethyl)oxamide]	5 to 50 nM	< 100 nM	< 5 nM	< 75 nM	B (IC50 ratio greater than or equal to 15 fold but lower than 30 fold)
CCN(C(=O)C(=O)Nc1cnc(N)c2cn[nH]c12)[C@@H](C)c1ccc(C(F)(F)F)cc1C [Compound 57, (S)—N^1-(4-amino-1H-pyrazolo[4,3-c]pyridin-7-yl)-N^2-ethyl-N^2-(1-(2-methyl-4-(trifluoromethyl)phenyl)ethyl)oxalamide]	> 50 nM	< 100 nM	< 5 nM	< 75 nM	B (IC50 ratio greater than or equal to 15 fold but lower than 30 fold)
CCN(C(=O)C(=O)Nc1cnc(N)c2cn[nH]c12)C(C)c1ccc(C(F)(F)F)cc1 (stereo not drawn) [Compound 58, N-(4-amino-1H-pyrazolo[4,3-c]pyridin-7-yl)-N′-ethyl-N′-[1-[4-(trifluoromethyl)phenyl]ethyl]oxamide]	> 50 nM	< 100 nM	< 5 nM	< 75 nM	B (IC50 ratio greater than or equal to 15 fold but lower than 30 fold)
CCN(C(=O)C(=O)Nc1cnc(N)c2cn[nH]c12)[C@H](C)c1ccc(C(F)(F)C(F)(F)F)cc1C [Compound 59, (R)—N^1-(4-amino-1H-pyrazolo[4,3-c]pyridin-7-yl)-N^2-ethyl-N^2-(1-(2-methyl-4-(perfluoroethyl)phenyl)ethyl)oxalamide]	5 to 50 nM	< 100 nM	< 5 nM	< 75 nM	C (IC50 ratio of less than 15 fold)
CC[C@H](C)CN(Cc1ccccc1C)C(=O)C(=O)Nc1cnc(N)c2cn[nH]c12 [Compound 60, (S)—N^1-(4-amino-1H-pyrazolo[4,3-c]pyridin-7-yl)-N^2-(2-methylbenzyl)-N^2-(2-methylbutyl)oxalamide]	5 to 50 nM	< 100 nM	< 5 nM	< 75 nM	A (IC50 ratio greater than or equal to 30 fold)
CC[C@@H](C)CN(Cc1ccccc1C)C(=O)C(=O)Nc1cnc(N)c2cn[nH]c12 [Compound 62, (R)—N^1-(4-amino-1H-pyrazolo[4,3-c]pyridin-7-yl)-N^2-(2-methylbenzyl)-N^2-(2-methylbutyl)oxalamide]	5 to 50 nM	< 100 nM	< 5 nM	< 75 nM	A (IC50 ratio greater than or equal to 30 fold)
CC[C@H](C)CN(Cc1ccc(C(F)(F)F)cn1)C(=O)C(=O)Nc1cnc(N)c2cn[nH]c12 [Compound 64, (S)—N^1-(4-amino-1H-pyrazolo[4,3-c]pyridin-7-yl)-N^2-(2-methylbutyl)-N^2-((5-(trifluoromethyl)pyridin-2-yl)methyl)oxalamide]	< 5 nM	< 100 nM	< 5 nM	< 75 nM	C (IC50 ratio of less than 15 fold)
Nc1ncc(NC(=O)C(=O)N(Cc2ccccc2)Cc2ncc(F)cc2Cl)c2[nH]ncc12 [Compound 65, N-(4-amino-1H-pyrazolo[4,3-c]pyridin-7-yl)-N′-benzyl-N′-[(3-chloro-5-fluoro-2-pyridyl)methyl]oxamide]	5 to 50 nM	< 100 nM	< 5 nM	< 75 nM	C (IC50 ratio of less than 15 fold)
Nc1ncc(NC(=O)C(=O)N(Cc2ccccc2)Cc2ccc(F)cn2)c2[nH]ncc12 [Compound 68, N-(4-amino-1H-pyrazolo[4,3-c]pyridin-7-yl)-N′-benzyl-N′-[(5-fluoro-2-pyridyl)methyl]oxamide]	> 50 nM	< 100 nM	< 5 nM	< 75 nM	A (IC50 ratio greater than or equal to 30 fold)
CCN(C(=O)C(=O)Nc1cnc(N)c2cn[nH]c12)[C@@H](C)c1ccc(C(F)(F)C(F)(F)F)cc1C [Compound 69, (S)—N^1-(4-amino-1H-pyrazolo[4,3-c]pyridin-7-yl)-N^2-ethyl-N^2-(1-(2-methyl-4-(perfluoroethyl)phenyl)ethyl)oxalamide]	> 50 nM	< 100 nM	5 to 50 nM	< 75 nM	B (IC50 ratio greater than or equal to 15 fold but lower than 30 fold)
CCN(C(=O)C(=O)Nc1cnc(N)c2cn[nH]c12)[C@H](C)c1ccc(C(F)(F)F)cc1C [Compound 70, (R)—N^1-(4-amino-1H-pyrazolo[4,3-c]pyridin-7-yl)-N^2-ethyl-N^2-(1-(2-methyl-4-(trifluoromethyl)phenyl)ethyl)oxalamide]	5 to 50 nM	< 100 nM	< 5 nM	< 75 nM	C (IC50 ratio of less than 15 fold)
Cc1cc(F)ccc1CN(CC(C)C)C(=O)C(=O)Nc1cnc(N)c2cn[nH]c12 [Compound 71, N-(4-amino-1H-pyrazolo[4,3-c]pyridin-7-yl)-N′-[(4-fluoro-2-methyl-phenyl)methyl]-N′-isobutyl-oxamide]	> 50 nM	< 100 nM	< 5 nM	< 75 nM	A (IC50 ratio greater than or equal to 30 fold)
CCN(Cc1ccc(C(F)(F)F)cc1F)C(=O)C(=O)Nc1cnc(N)c2cn[nH]c12 [Compound 72, N-(4-amino-2H-pyrazolo[4,3-c]pyridin-7-yl)-N′-ethyl-N′-[[2-fluoro-4-(trifluoromethyl)phenyl]methyl]oxamide]	5 to 50 nM	< 100 nM	< 5 nM	< 75 nM	A (IC50 ratio greater than or equal to 30 fold)
CC(C)N(Cc1ccccc1C(F)(F)F)C(=O)C(=O)Nc1cnc(N)c2cn[nH]c12 [Compound 73, N-(4-amino-1H-pyrazolo[4,3-c]pyridin-7-yl)-N′-isopropyl-N′-[[2-(trifluoromethyl)phenyl]methyl]oxamide]	5 to 50 nM	< 100 nM	< 5 nM	< 75 nM	B (IC50 ratio greater than or equal to 15 fold but lower than 30 fold)
CC[C@@H](C)CN(Cc1ccc(C(F)(F)F)cn1)C(=O)C(=O)Nc1cnc(N)c2cn[nH]c12 [Compound 75, (R)—N^1-(4-amino-1H-pyrazolo[4,3-c]pyridin-7-yl)-N^2-(2-methylbutyl)-N^2-((5-(trifluoromethyl)pyridin-2-yl)methyl)oxalamide]	5 to 50 nM	< 100 nM	< 5 nM	< 75 nM	C (IC50 ratio of less than 15 fold)
Cc1ccccc1CN(Cc1ccc(C(F)(F)F)cn1)C(=O)C(=O)Nc1cnc(N)c2cn[nH]c12 [Compound 76, N-(4-amino-1H-pyrazolo[4,3-c]pyridin-7-yl)-N′-(o-tolylmethyl)-N′-[[5-(trifluoromethyl)-2-pyridyl]methyl]oxamide]	5 to 50 nM	< 100 nM	< 5 nM	< 75 nM	C (IC50 ratio of less than 15 fold)
Nc1ncc(NC(=O)C(=O)N(Cc2ccccn2)Cc2ccc(F)cc2Cl)c2[nH]ncc12 [Compound 77, N-(4-amino-1H-pyrazolo[4,3-c]pyridin-7-yl)-N′-[(2-chloro-4-fluoro-phenyl)methyl]-N′-(2-pyridylmethyl)oxamide]	5 to 50 nM	< 100 nM	< 5 nM	< 75 nM	B (IC50 ratio greater than or equal to 15 fold but lower than 30 fold)
